Results reported in ChEMBL document CHEMBL1201862, “PubChem BioAssay data set” (2004).
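Compound exposure: 48 hours, 5 concentrations, 96-well plates. Abbreviation: GI50, concentration required for 50% inhibition of growth.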 Active and inactive are the calls of the source. No stated cut-off is given here; in the data, active = GI50 up to about 1.1 µM and inactive = higher.

Tests used:
Experiment in all cases: NCI-60 cell line screen, 48 h
NCI-H23 = tested on: NCI-H23
786-0 = tested on: 786-0
TK-10 = tested on: TK-10
KM12 = tested on: KM12
SK-MEL-5 = tested on: SK-MEL-5
SNB-75 = tested on: SNB-75
EKVX = tested on: EKVX
HCT-15 = tested on: HCT-15
HCT-116 = tested on: HCT-116
LOX IMVI = tested on: LOX IMVI
SK-OV-3 = tested on: SK-OV-3
Hs-578T = tested on: Hs-578T
U-251 = tested on: U-251
OVCAR-4 = tested on: OVCAR-4
NCI/ADR-RES = tested on: NCI/ADR-RES
SN12C = tested on: SN12C
HT-29 = tested on: HT-29
MOLT-4 = tested on: MOLT-4
PC-3 = tested on: PC-3
NCI-H226 = tested on: NCI-H226
SNB-19 = tested on: SNB-19
SW-620 = tested on: SW-620
T47D = tested on: T47D
A549 = tested on: A549
CCRF-CEM = tested on: CCRF-CEM
SF-268 = tested on: SF-268
MCF7 = tested on: MCF7
Malme-3M = tested on: Malme-3M
DU-145 = tested on: DU-145
IGROV-1 = tested on: IGROV-1
HOP-92 = tested on: HOP-92
UACC-62 = tested on: UACC-62
M14 = tested on: M14
NCI-H522 = tested on: NCI-H522
RXF 393 = tested on: RXF 393
RPMI-8226 = tested on: RPMI-8226
OVCAR-8 = tested on: OVCAR-8
UACC-257 = tested on: UACC-257
SK-MEL-28 = tested on: SK-MEL-28
OVCAR-3 = tested on: OVCAR-3
HOP-62 = tested on: HOP-62
CAKI-1 = tested on: CAKI-1
HCC 2998 = tested on: HCC 2998
MDA-N = tested on: MDA-N
SK-MEL-2 = tested on: SK-MEL-2
BT-549 = tested on: BT-549
ACHN = tested on: ACHN
SF-295 = tested on: SF-295
COLO 205 = tested on: COLO 205
MDA-MB-231 = tested on: MDA-MB-231
SR = tested on: SR
OVCAR-5 = tested on: OVCAR-5
A498 = tested on: A498
MDA-MB-435 = tested on: MDA-MB-435
HL-60 = tested on: HL-60

COc1cc(C2S/C(=C/c3ccccc3)C(=O)N2c2ccc(Cl)cc2)cc(OC)c1OC (stereo not given)
GI50 (NCI-H23): 12.7 µM (inactive)
GI50 (786-0): > 100 µM (inactive)
GI50 (TK-10): > 100 µM (inactive)
GI50 (KM12): 11.3 µM (inactive)
GI50 (SK-MEL-5): 0.492 µM (active)
GI50 (SNB-75): 16.4 µM (inactive)
GI50 (EKVX): 23.8 µM (inactive)
GI50 (HCT-15): 9.51 µM
GI50 (HCT-116): 3.65 µM (inactive)
GI50 (LOX IMVI): 6.03 µM (inactive)
GI50 (SK-OV-3): > 20.1 µM (inactive)
GI50 (Hs-578T): 32.3 µM (inactive)
GI50 (U-251): 37.7 µM (inactive)
GI50 (OVCAR-4): 4.71 µM (inactive)
GI50 (NCI/ADR-RES): 16.9 µM (inactive)
GI50 (SN12C): 39.1 µM (inactive)
GI50 (HT-29): 23.8 µM (inactive)
GI50 (MOLT-4): 5.79 µM (inactive)
GI50 (PC-3): > 46.6 µM (inactive)
GI50 (NCI-H226): > 89.1 µM (inactive)
GI50 (SNB-19): > 88.7 µM (inactive)
GI50 (SW-620): 12.9 µM (inactive)
GI50 (T47D): 0.705 µM (active)
GI50 (A549): 24.4 µM (inactive)
GI50 (CCRF-CEM): 4.4 µM (inactive)
GI50 (SF-268): 8.24 µM (inactive)
GI50 (MCF7): 3.09 µM (inactive)
GI50 (Malme-3M): 23.7 µM (inactive)
GI50 (DU-145): 54.2 µM (inactive)
GI50 (IGROV-1): 13.5 µM (inactive)
GI50 (HOP-92): 5.92 µM (inactive)
GI50 (UACC-62): 23.3 µM (inactive)
GI50 (M14): 2 µM (inactive)
GI50 (NCI-H522): 0.656 µM (active)
GI50 (RXF 393): 40.6 µM (inactive)
GI50 (RPMI-8226): 8.18 µM (inactive)
GI50 (OVCAR-8): 22.1 µM (inactive)
GI50 (UACC-257): 34.2 µM (inactive)
GI50 (SK-MEL-28): 63.2 µM (inactive)
GI50 (OVCAR-3): 26.4 µM (inactive)
GI50 (HOP-62): 14.2 µM (inactive)
GI50 (CAKI-1): 20.9 µM (inactive)
GI50 (HCC 2998): 36.6 µM (inactive)
GI50 (MDA-N): 1.58 µM (inactive)
GI50 (SK-MEL-2): 7.98 µM (inactive)
GI50 (BT-549): 7.43 µM (inactive)
GI50 (ACHN): 0.178 µM (active)
GI50 (SF-295): 7.64 µM (inactive)
GI50 (COLO 205): 0.617 µM (active)
GI50 (MDA-MB-231): > 43.9 µM (inactive)
GI50 (SR): 70 µM (inactive)
GI50 (OVCAR-5): > 100 µM (inactive)
GI50 (A498): 53.8 µM (inactive)
GI50 (MDA-MB-435): 1.52 µM (inactive)
GI50 (HL-60): 23.2 µM (inactive)
